# How the values were obtained:
# Assay in all cases: -log10 GI50 (growth inhibition 50%) (-log10(M)); higher = more potent growth inhibition
# HCC1419 = tested on: HCC1419
# Procedure, shortened: (§1)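 Breast cancer cell lines were exposed to each compound for 72 hours at nine doses in 1:5 serial dilution, in triplicate, with a luminescence read-out against a time-zero plate. A Gompertz curve was fitted to the dose-response data by nonlinear least squares. The value is minus log10 of GI50, the molar concentration giving the set level of growth inhibition. Values equal to the top dose carry a < qualifier.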
# MCF10F = tested on: MCF10F
# Procedure, shortened: as §1
# HCC1954 = tested on: HCC1954
# Procedure, shortened: as §1
# SUM52PE = tested on: SUM52PE
# Procedure, shortened: as §1
# SUM149PT = tested on: SUM149PT
# Procedure, shortened: as §1
# UACC812 = tested on: UACC812
# Procedure, shortened: as §1
# HCC1428 = tested on: HCC1428
# Procedure, shortened: as §1
# BT20 = tested on: BT20
# Procedure, shortened: as §1
# BT474 = tested on: BT474
# Procedure, shortened: as §1
# MDAMB134VI = tested on: MDAMB134VI
# Procedure, shortened: as §1
# HCC1143 = tested on: HCC1143
# Procedure, shortened: as §1
# CAMA1 = tested on: CAMA1
# Procedure, shortened: as §1
# T47D = tested on: T47D
# Procedure, shortened: as §1
# SUM159PT = tested on: SUM159PT
# Procedure, shortened: as §1
# 184A1 = tested on: 184A1
# Procedure, shortened: as §1
# T47D_KBluc = tested on: T47D_KBluc
# Procedure, shortened: as §1
# HCC38 = tested on: HCC38
# Procedure, shortened: as §1
# MCF10A = tested on: MCF10A
# Procedure, shortened: as §1
# MCF12A = tested on: MCF12A
# Procedure, shortened: as §1
# HCC2185 = tested on: HCC2185
# Procedure, shortened: as §1
# MCF7 = tested on: MCF7
# Procedure, shortened: as §1
# MDAMB453 = tested on: MDAMB453
# Procedure, shortened: as §1
# SUM1315MO2 = tested on: SUM1315MO2
# Procedure, shortened: as §1
# BT549 = tested on: BT549
# Procedure, shortened: as §1
# HCC70 = tested on: HCC70
# Procedure, shortened: as §1
# HCC1187 = tested on: HCC1187
# Procedure, shortened: as §1
# ZR751 = tested on: ZR751
# Procedure, shortened: as §1
# HCC1937 = tested on: HCC1937
# Procedure, shortened: as §1
# HCC1395 = tested on: HCC1395
# Procedure, shortened: as §1
# BT483 = tested on: BT483
# Procedure, shortened: as §1
# SUM185PE = tested on: SUM185PE
# Procedure, shortened: as §1
# MX1 = tested on: MX1
# Procedure, shortened: as §1
# AU565 = tested on: AU565
# Procedure, shortened: as §1
# ZR75B = tested on: ZR75B
# Procedure, shortened: as §1
# SKBR3 = tested on: SKBR3
# Procedure, shortened: as §1
# HCC202 = tested on: HCC202
# Procedure, shortened: as §1
# HCC1806 = tested on: HCC1806
# Procedure, shortened: as §1
# SUM225CWN = tested on: SUM225CWN
# Procedure, shortened: as §1
# MDAMB157 = tested on: MDAMB157
# Procedure, shortened: as §1
# MDAMB231 = tested on: MDAMB231
# Procedure, shortened: as §1
# MDAMB175VII = tested on: MDAMB175VII
# Procedure, shortened: as §1
# LY2 = tested on: LY2
# Procedure, shortened: as §1
# SUM229PE = tested on: SUM229PE
# Procedure, shortened: as §1
# HS578T = tested on: HS578T
# Procedure, shortened: as §1
# HCC3153 = tested on: HCC3153
# Procedure, shortened: as §1
# MDAMB415 = tested on: MDAMB415
# Procedure, shortened: as §1
# 600MPE = tested on: 600MPE
# Procedure, shortened: as §1
# HCC1569 = tested on: HCC1569
# Procedure, shortened: as §1
# MDAMB361 = tested on: MDAMB361
# Procedure, shortened: as §1
# 184B5 = tested on: 184B5
# Procedure, shortened: as §1
smiles,measurement,setting,value
Nc1nc2[nH]cc(CCc3ccc(C(=O)N[C@@H](CCC(=O)O)C(=O)O)cc3)c2c(=O)[nH]1 [Pemetrexed],-log10 GI50,HCC1419,< 2.53
same,-log10 GI50,MCF10F,< 2.53
same,-log10 GI50,HCC1954,< 2.53
same,-log10 GI50,SUM52PE,< 2.53
same,-log10 GI50,SUM149PT,< 2.53
same,-log10 GI50,UACC812,< 2.53
same,-log10 GI50,HCC1428,< 2.53
same,-log10 GI50,BT20,< 2.53
same,-log10 GI50,BT474,< 2.53
same,-log10 GI50,MDAMB134VI,< 2.53
same,-log10 GI50,HCC1143,< 2.53
same,-log10 GI50,CAMA1,4.62
same,-log10 GI50,T47D,< 2.53
same,-log10 GI50,SUM159PT,< 2.53
same,-log10 GI50,184A1,6.38
same,-log10 GI50,T47D_KBluc,< 2.53
same,-log10 GI50,HCC38,< 2.53
same,-log10 GI50,MCF10A,< 2.53
same,-log10 GI50,MCF12A,6.72
same,-log10 GI50,HCC2185,< 2.53
same,-log10 GI50,MCF7,< 2.53
same,-log10 GI50,MDAMB453,< 2.53
same,-log10 GI50,SUM1315MO2,< 2.53
same,-log10 GI50,BT549,< 2.53
same,-log10 GI50,HCC70,< 2.53
same,-log10 GI50,HCC1187,< 2.53
same,-log10 GI50,ZR751,5.05
same,-log10 GI50,HCC1937,3.17
same,-log10 GI50,HCC1395,< 2.53
same,-log10 GI50,BT483,< 2.53
same,-log10 GI50,SUM185PE,< 2.53
same,-log10 GI50,MX1,< 2.53
same,-log10 GI50,AU565,< 2.53
same,-log10 GI50,ZR75B,< 2.53
same,-log10 GI50,SKBR3,5.02
same,-log10 GI50,HCC202,5.11
same,-log10 GI50,HCC1806,6.05
same,-log10 GI50,SUM225CWN,< 2.53
same,-log10 GI50,MDAMB157,< 2.53
same,-log10 GI50,MDAMB231,< 2.53
same,-log10 GI50,MDAMB175VII,8.1
same,-log10 GI50,LY2,6.33
same,-log10 GI50,SUM229PE,4.53
same,-log10 GI50,HS578T,4.59
same,-log10 GI50,HCC3153,< 2.53
same,-log10 GI50,MDAMB415,< 2.53
same,-log10 GI50,600MPE,< 2.53
same,-log10 GI50,HCC1569,< 2.53
same,-log10 GI50,MDAMB361,6.19
same,-log10 GI50,184B5,6.44
